Results taken from US20230416785A1, “NUCLEASE AND APPLICATION THEREOF” (CRISP-HR Therapeutics, Inc., priority 2020, published 2023).
Entries after “also recorded” stand apart in the source; their conditions may differ.

Experiments:
AAVS1 [1] = experiment: RLucRT luminescence HDR assay in H1299 cells; type: cell-based, human; conditions: for luminescence relative to Cas9: RLucRT (2.0 kb)
Procedure: FIG. 4B illustrates experimental procedures for RLucRT experiments. Diagram showing experimental procedure for the dsDNA RLucRT HDR assay in H1299 cells. […] After two days, cellular viability is quantified via Resazurin assay, then cells are washed with PBS then lysed. Lysate is then incubated with Coelenterazine, and luminescence immediately quantified via plate reader.
For these experiments, the well characterized safe harbor site AAVS1 was used combined with previously established and functional guide RNAs AAVS1 T1 and T2, which will be referred to as G1 and G2 respectively hereafter. […] As with the puromycin resistance cassette, PCR amplified dsDNA was used as opposed to plasmids to avoid confounding results when quantifying HDR rates, and to avoid extra integration of plasmid specific sequences in the genome.
Next the viability of transfected cells was quantified via resazurin after two days, then cells were washed with PBS, then lysed and luminescence quantified via plate reader (FIG. 4B). […] Next Luminescence was quantified via the Renilla-Glo Luciferase Assay System (Promega) using a 96 well plate reader with luminescence capabilities (Tecan). After data collection, raw luminescence was background subtracted from non-transfected control cells, corrected for cellular viability, and plotted in FIG. 4D.
After two days, cellular viability was quantified via Resazurin, then washed with PBS and lysed with 25 μL of cell lysis buffer, and luciferase activity was quantified via Renilla Luciferase Assay (Promega) and using a Tecan Infinite Mplex plate reader.

AAVS1 [2] = experiment: RLucRT HDR assay in A549 cells; type: cell-based, human; conditions: G1
HBB amplicon = experiment: In-vitro exonuclease assay with purified proteins; type: biochemical, human; conditions: 30 nM protein, 3 nM HBB amplicon, 37° C., 60 minutes
Procedure: Reactions were then electrophoresed and visualized on an agarose gel. FIG. 5C illustrates quantification of exonuclease activity. Quantification of exonuclease activity assayed in FIG. 5B. 3 replicates were performed for each reaction and were quantified via FIJI (ImageJ) and then normalized to control amplicon levels.
Reactions were then electrophoresed and visualized on an agarose gel.
DNA was isolated from wildtype K562 cells, and amplified using standard Taq DNA polymerase and HBB-out-F (5′-[…]-3′ (SEQ ID NO: 125)) and HBB-out-R (5′-[…]-3′ (SEQ ID NO: 126)), Tm=56 for 35 cycles, and purified using the Qiagen PCR cleanup kit. […] The samples were then electrophoresed on a standard 1% TAE agarose gel stained with gel green.

Beta-Catenin1 [3] = experiment: Beta-Catenin1:mCherry HDR in H1299 cells; type: cell-based, human
Procedure: (§1) After three days, media was replaced with HBSS (to reduce background for imaging) imaged using an EVOS M5000 imaging system. Imaging was performed by randomly finding and focusing on at least ten different sections per well using a 20× magnification lens, after which both brightfield and RFP images were acquired. Imaged were quantified by hand, using control images as the basis for RFP/mCherry background fluorescence.

Beta-Catenin1 [4] = experiment: Beta-Catenin1:mCherry knock-in in HEK293 cells; type: cell-based, human
Cadherin1 = experiment: Cadherin1:mCherry HDR in H1299 cells; type: cell-based, human
Procedure: as §1, with “10×” for “20×”

CHO-SHS-1.2 = experiment: CHO cell Cas9-HR8 stable knock-in, anti-Cas9 western blot; type: cell-based; conditions: CHO cells; CHO-SHS-1.2-G1; Puromycin 10 days, then 12 days without
Procedure: CHO-Freestyle Cells (Invitrogen) were grown to ˜70% confluency, after which were transfected using the Neon (Thermo) transfection system and 250 ng of Cas9-HR8, 250 ng of either CHO-SHS-1.2-G1, and 50 ng CHO-SHS-1.2-pCAG-Cas9-HR8-IRES-PuroR RT. Cells were allowed to recover for two days, then treated with […] Puromycin for 10 days, after which Puromycin selection was removed. Cells were grown for an additional 12 days, after which cells split and half were frozen, while the other half was treated with RIPA buffer (Santa-Cruz) to extract protein, with non-transfected control CHO cells protein also extracted via RIPA buffer. Lysate was normalized and 7.5 ug total protein was loaded onto a 4-12% Bis-Tris Acrylamide gel (Invitrogen), and transferred to nitrocellulose using BioRad blotting and transfer system (BioRad). Membrane was washed 3× with 1×PBST (BioRad), blocked for 10 minutes using EveryBlot blocking solution (BioRad), and incubated for 1 hr at RT with a 1:1000 dilution of mouse anti-Cas9 (SantaCruz). Membrane was washed 5× for 5 minutes each in PBST, then incubated for an hour with 1:1000 rabbit anti-mouse-HRP secondary antibody for 1 hr at RT. Membrane was then washed 5× for 5 minutes each in PBST, after which a 1× NC/DAB (ThermoFisher) solution was used to visualize bands. FIG. 22A illustrates an exemplary diagram showing CHO cell Cas9-HR8 stable knock-in protocol. […]

[5] = comparison with Dna2 fusions, day 3

## Cas9-HR 8: hExo1(1-352)-Cas9 fusion of FIG. 1A; E. coli codon optimized vectors SEQ ID NO: 68 and 69
AAVS1 [1]; AAVS1-G1
  nested junction PCR of RLucRT integration (5′ and 3′): Strong specific amplification
AAVS1 [1]; AAVS1 G1
  luminescence relative to Cas9: ~2.5 fold
AAVS1 [1]; AAVS1 G2
  luminescence relative to Cas9: ~2 fold
AAVS1 [1]; background subtracted
  luminescence, AAVS1-G1 compared with AAVS1-G2: significantly higher luminescence
AAVS1 [1]; both G1 and G2
  increase in HDR rates compared to Cas9 (Cas9 normalized luminescence): 2-3 ×
AAVS1 [2]
  HDR rates compared to Cas9 (normalized luminescence): ~2.5 ×
HBB amplicon
  exonuclease activity (reduction of full length HBB amplicon): significant reduction in the full length HBB amplicon; also recorded: significant exonuclease activity
Beta-Catenin1 [3]; G2, day 3
  fold change in mCherry+ cells relative to Cas9: ~2.5 fold
Beta-Catenin1 [3]; G3, day 3
  fold change in mCherry+ cells relative to Cas9: ~2.5 fold
Beta-Catenin1 [3]; all guide polynucleotides (G1, G2, G3), day 3
  fold increase in mCherry+ cells relative to Cas9: > 2 fold
Beta-Catenin1 [3]; all three gRNAs, day 3
  mCherry+ cells compared to Cas9: significant increases in mCherry+ cells
Beta-Catenin1 [3]; average mCherry+ cells per image section, day 3
  positive cell count compared to Beta-Catenin1:mCherry alone: significant increases in positive cell count
Beta-Catenin1 [4]; B-Cat-G3
  HDR rates compared to Cas9 (normalized knock-in rates): ~2.5 ×
Beta-Catenin1 [4]; Beta-Catenin-G1
  absolute mCherry+ cells relative to Cas9-NT or repair template alone: significant increases in mCherry+ cells
  numbers of mCherry+ cells compared to repair template: significantly increased numbers of mCherry+ cells
Cadherin1; H1299 cells, 12 well plate, Ecad-G1, 4 Days after transfection
  mCherry+ cells, whole well imaging: significant amounts of mCherry+ cells; also recorded: significantly higher amounts of mCherry+ cells
Cadherin1; H1299 cells, G1, day 3
  fold change in mCherry+ cells relative to Cas9: ~2.3 fold
Cadherin1; H1299 cells, all guide polynucleotides, day 3
  fold increase in mCherry+ cells relative to Cas9: > 1.5 fold
Cadherin1; H1299 cells, all three gRNAs (so in the source), day 3
  mCherry+ cells compared to Cas9: significant increases in mCherry+ cells
Cadherin1; H1299 cells, average mCherry+ cells per image section, day 3
  positive cell count compared to Cadherin1:mCherry alone: significant increases in positive cell count
Cadherin1; comparison with Dna2 fusions
  normalized Cadherin1:mCherry HDR rate (fold change compared to Cas9): significantly higher HDR rate
Cadherin1; [5]
  mCherry+ cell count compared to Cadherin1:mCherry RT alone: significant increases in mCherry+ cell count
  mCherry+ cells compared to Cas9: significant increases in mCherry+ cells
CHO-SHS-1.2
  stable knock-in of Cas9-HR8 repair template (over 8 kb), anti-Cas9 western blot: stably integrated Cas9-HR8
